Assay type in all cases: functional, cell-based
The test system of one assay is HeLa. In words: Cytotoxicity against human HeLa cells after 72 hrs by MTT assay.
A short description of assay [1]: Cytotoxicity against human MDA-MB-435S cells after 72 hrs by MTT assay.
The test system of the next assay is SW480. Kind of assay: Cytotoxicity against human SW480 cells after 72 hrs by MTT assay. Conditions: SW480, 72 h.
The next assay deals with MCF7. Kind of assay: Cytotoxicity against human MCF7 cells after 72 hrs by MTT assay. Conditions: MCF7, 72 h.
In the next assay the test system is HEp-2. Kind of assay: Cytotoxicity against human Hep2 cells after 72 hrs by MTT assay. To be noted: HEp-2, 72 h.
Assay [2] can be described thus: Cytotoxicity against human LM7 cells after 72 hrs by MTT assay. Conditions: LM7, 72 h.

For `O=c1c2ccccc2ncn1CSc1nc2ccccc2s1`, the half-inhibitory concentration (IC50) (with HeLa; in assay [1]; with SW480; with MCF7; in the assay on HEp-2; in assay [2]) was greater than 25 µM in each case.

With `Cc1ccc2oc(CSc3nc(C)cc(C)n3)cc(=O)c2c1`, the 50% inhibitory concentration (IC50) (in the assay with HeLa; in assay [1]; in the assay with SW480; in the assay with MCF7; with HEp-2; in assay [2]) was greater than 25 µM throughout.

On to `Cc1cc(C)n2nc(SCc3nnc(SCc4cc(=O)c5ccccc5o4)s3)nc2n1`, for which the IC50 (in the assay on HeLa; in assay [1]; in the assay on SW480; with MCF7; in the assay on HEp-2; in assay [2]) was greater than 25 µM in each case.

`O=c1c2cccc(Cl)c2ncn1CSc1nc2ccccc2s1`: the concentration for half-maximal inhibition (IC50) (in the assay on HeLa; in assay [1]; with SW480; in the assay with MCF7; in the assay on HEp-2; in assay [2]) was greater than 25 µM each time.

On to `Cc1cc(C)n2nc(SCc3nnc(SCc4cc(=O)c5ccccc5o4)n3N)nc2n1`, for which the 50% inhibitory concentration (IC50) (in the assay with HeLa; in assay [1]; with SW480; in the assay with MCF7; in the assay on HEp-2; in assay [2]) was greater than 25 µM in each case.

Regarding `Cc1cc(O)cc2oc(=O)cc(CSc3nc4ccccc4[nH]3)c12`, the IC50 (in the assay with HeLa; in assay [1]; with SW480; with MCF7; with HEp-2; in assay [2]) was greater than 25 µM each time.

As to `O=c1[nH]cc(F)c(=O)[nH]1` [FLUOROURACIL], the IC50 was found to be 3.4 µM in the assay with HeLa, 3.6 µM in the assay with MCF7 and 18.6 µM in assay [2].

In the case of `Cc1nnc(SCc2coc3ccc(Cl)cc3c2=O)o1`, the IC50 with HeLa is 3.2 µM; in assay [1], 3.3 µM; in the assay with SW480, 3.5 µM; with MCF7, 5 µM; in the assay on HEp-2, 6.4 µM; in assay [2] it was 8.7 µM.

As for `Nc1nnc(SCc2cc(=O)oc3c2ccc2ccccc23)s1`, the IC50 (in the assay on HeLa; in assay [1]; in the assay with SW480; in the assay with MCF7; with HEp-2; in assay [2]) was greater than 25 µM throughout.

`Cc1cc(C)n2nc(SCc3nnc(SCc4cc(=O)oc5cc(O)cc(C)c45)s3)nc2n1`: the IC50 (in the assay on HeLa; in assay [1]; in the assay with SW480; with MCF7; in the assay with HEp-2; in assay [2]) was greater than 25 µM each time.

As to `COC(=O)Nc1ccc2c(CSc3nnc(CSc4nc(C)cc(C)n4)s3)cc(=O)oc2c1`, the IC50 in the assay on HeLa turned out to be 15.9 µM; in assay [1] it was 4.6 µM; in the assay with SW480 it was 3.7 µM; in the assay with MCF7, 9.4 µM; in the assay with HEp-2, 2.1 µM; in assay [2], 2.3 µM.

As to `Cc1cc(C)n2nc(SCc3nnc(SCc4cc(=O)c5ccccc5o4)n3-c3ccccc3)nc2n1`, the concentration for half-maximal inhibition (IC50) (with HeLa; in assay [1]; with SW480; in the assay on MCF7; in the assay with HEp-2; in assay [2]) was greater than 25 µM throughout.

For `O=c1c2cccc(Cl)c2ncn1CSc1nc2ccccc2o1`, the IC50 (in the assay with HeLa; in assay [1]; in the assay with SW480; in the assay with MCF7; with HEp-2; in assay [2]) was greater than 25 µM in each case.

Turning to `O=c1cc(CSc2nc3ccccc3s2)oc2ccc(Cl)cc12`, the half-maximal inhibitory concentration (IC50) (in the assay on HeLa; in assay [1]; with SW480; in the assay on MCF7; in the assay on HEp-2; in assay [2]) was greater than 25 µM throughout.

As to `Cc1cc(C)n2nc(SCc3nnc(SCn4cnc5c(Cl)cccc5c4=O)s3)nc2n1`, the half-maximal inhibitory concentration (IC50) (with HeLa; in assay [1]; in the assay on SW480; in the assay with MCF7; in the assay with HEp-2; in assay [2]) was greater than 25 µM throughout.

Consider `Nc1nnc(SCc2coc3ccccc3c2=O)s1`, for which the IC50 in the assay with HeLa is greater than 25 µM; in assay [1] it was 0.95 µM; with SW480 it was greater than 25 µM; in the assay with MCF7 it was greater than 25 µM; in the assay with HEp-2 it was 1.5 µM; in assay [2], 0.73 µM.

With `Cc1ccc2oc(CSc3nc4ccccc4s3)cc(=O)c2c1`, the IC50 (in the assay with HeLa; in assay [1]; in the assay on SW480; in the assay on MCF7; in the assay with HEp-2; in assay [2]) was greater than 25 µM throughout.

Consider `COC(=O)Nc1ccc2c(CSc3nc(C)cc(C)n3)cc(=O)oc2c1`, for which the 50% inhibitory concentration (IC50) with HeLa worked out at 14.3 µM; in assay [1], 19 µM; with SW480 it was 13.2 µM; in the assay with MCF7 it was 9.9 µM; with HEp-2 it was 8 µM; in assay [2], 8.2 µM.

Consider `Cc1cc(C)n2nc(SCc3nnc(SCc4cc(=O)oc5c4ccc4ccccc45)s3)nc2n1`, for which the IC50 (with HeLa; in assay [1]; in the assay with SW480; in the assay with MCF7; in the assay with HEp-2; in assay [2]) was greater than 25 µM throughout.

Turning to `O=c1cc(SCn2cnc3ccccc3c2=O)sc2ccccc12`, the IC50 in the assay on HeLa is 6.3 µM; in assay [1], 4.1 µM; in the assay with SW480 it was 8.5 µM; in the assay on MCF7 it was 5.3 µM; in the assay with HEp-2 it was 5.9 µM; in assay [2], 17 µM.

Turning to `O=c1c2ccccc2ncn1CSc1nc2ccccc2o1`, the concentration for half-maximal inhibition (IC50) (in the assay on HeLa; in assay [1]; with SW480; in the assay with MCF7; with HEp-2; in assay [2]) was greater than 25 µM in each case.

For the compound `Cc1cc(C)n2nc(SCc3cc(=O)c4cc(Cl)ccc4o3)nc2n1`, the IC50 (with HeLa; in assay [1]; in the assay with SW480; in the assay on MCF7; in the assay on HEp-2; in assay [2]) was greater than 25 µM throughout.

As to `Cc1nnc(SCc2cc(=O)c3ccccc3o2)s1`, the IC50 (in the assay on HeLa; in assay [1]; in the assay with SW480; in the assay on MCF7; in the assay with HEp-2; in assay [2]) was greater than 25 µM throughout.

With `O=c1cc(CSc2nc3ccccc3o2)c2ccc(O)c(O)c2o1`, the IC50 (in the assay with HeLa; in assay [1]; in the assay on SW480; in the assay on MCF7; in the assay on HEp-2; in assay [2]) was greater than 25 µM throughout.

With `Cc1cc(C)nc(SCc2cc(=O)c3ccccc3o2)n1`, the IC50 (in the assay with HeLa; in assay [1]; in the assay on SW480; in the assay with MCF7; in the assay with HEp-2; in assay [2]) was greater than 25 µM each time.

Take `Cc1cc(O)cc2oc(=O)cc(CSc3nc4ccccc4s3)c12`: the IC50 (in the assay on HeLa; in assay [1]; in the assay with SW480; in the assay with MCF7; in the assay on HEp-2; in assay [2]) was greater than 25 µM throughout.

Values taken from ChEMBL document CHEMBL2417443, “Efficient synthesis and antiproliferative activity of novel thioether-substituted flavonoids” (Eur J Med Chem, 2013).
